Drawing on PubChem BioAssay AID1259407 (Chemical Carcinogenesis Research Information System (CCRIS), 2018), this text covers mutagenic call for seven molecules.

Activity calls are given as the source filed them. The rule behind the calls is not given here.

For the series, the system named is CCRIS mutagenicity, Ames/micronucleus/aberration tests. The series is described as follows: CCRIS mutagenicity studies.
The mark [1] stands for this setting: Test System: AMES SALMONELLA TYPHIMURIUM, Strain/Indicator: TA98, Metabolic Activation: NONE, Method: PREINCUBATION
[2] abbreviates: Test System: AMES SALMONELLA TYPHIMURIUM, Strain/Indicator: TA100, Metabolic Activation: NONE, Method: PREINCUBATION
Where [3] appears, read: Test System: AMES SALMONELLA TYPHIMURIUM, Strain/Indicator: TA1535, Metabolic Activation: NONE, Method: PREINCUBATION
Where [4] appears, read: Test System: AMES SALMONELLA TYPHIMURIUM, Strain/Indicator: TA100, Metabolic Activation: NONE, Method: STANDARD PLATE.
Setting [5] is: Test System: AMES SALMONELLA TYPHIMURIUM, Strain/Indicator: TA98, Metabolic Activation: NONE, Method: STANDARD PLATE.
The mark [6] stands for this setting: Test System: AMES SALMONELLA TYPHIMURIUM, Strain/Indicator: TA100, Metabolic Activation: RAT, LIVER, S-9, AROCLOR 1254, Method: STANDARD PLATE.

For `CCCCC(CC)COC(=O)c1ccc(C(=O)OCC(CC)CCCC)c(C(=O)OCC(CC)CCCC)c1` (configuration not stated), the mutagenic call runs as follows: (Test System: AMES SALMONELLA TYPHIMURIUM, Strain/Indicator: TA97, Metabolic Activation: HAMSTER, LIVER, S-9, AROCLOR 1254 (10 OR 30%), Method: PREINCUBATION) “inactive; negative”; (Test System: AMES SALMONELLA TYPHIMURIUM, Strain/Indicator: TA97, Metabolic Activation: NONE, Method: PREINCUBATION) “inactive; negative”; (Test System: AMES SALMONELLA TYPHIMURIUM, Strain/Indicator: TA97, Metabolic Activation: RAT, LIVER, S-9, AROCLOR 1254 (10 OR 30%), Method: PREINCUBATION) “inactive; negative”; (Test System: AMES SALMONELLA TYPHIMURIUM, Strain/Indicator: TA98, Metabolic Activation: HAMSTER, LIVER, S-9, AROCLOR 1254 (10 OR 30%), Method: PREINCUBATION) “inactive; negative”; under setting [1], “inactive; negative”; (Test System: AMES SALMONELLA TYPHIMURIUM, Strain/Indicator: TA98, Metabolic Activation: RAT, LIVER, S-9, AROCLOR 1254 (10 OR 30%), Method: PREINCUBATION) “inactive; negative”. The mutagenic call was “inactive; negative” (Test System: AMES SALMONELLA TYPHIMURIUM, Strain/Indicator: TA100, Metabolic Activation: HAMSTER, LIVER, S-9, AROCLOR 1254 (10 OR 30%), Method: PREINCUBATION); “inactive; negative” under setting [2]; “inactive; negative” (Test System: AMES SALMONELLA TYPHIMURIUM, Strain/Indicator: TA100, Metabolic Activation: RAT, LIVER, S-9, AROCLOR 1254 (10 OR 30%), Method: PREINCUBATION); “inactive; negative” (Test System: AMES SALMONELLA TYPHIMURIUM, Strain/Indicator: TA1535, Metabolic Activation: HAMSTER, LIVER, S-9, AROCLOR 1254 (10 OR 30%), Method: PREINCUBATION); “inactive; negative” under setting [3]; “inactive; negative” (Test System: AMES SALMONELLA TYPHIMURIUM, Strain/Indicator: TA1535, Metabolic Activation: RAT, LIVER, S-9, AROCLOR 1254 (10 OR 30%), Method: PREINCUBATION).
For the molecule `CC(=O)ON(OCc1ccc(Cl)cc1)C(=O)c1ccccc1`, the mutagenic call reads like this: under setting [4], “active; positive”; (Test System: AMES SALMONELLA TYPHIMURIUM, Strain/Indicator: TA100, Metabolic Activation: RAT, S-9, AROCLOR, Method: STANDARD PLATE) “active; positive”.
In the case of `O=C[C@H](O)[C@@H](O)[C@H](O)CO`, the mutagenic call (Test System: AMES SALMONELLA TYPHIMURIUM, Strain/Indicator: TA97A, Metabolic Activation: NONE, Method: PREINCUBATION) was “inactive; negative”; the mutagenic call (Test System: AMES SALMONELLA TYPHIMURIUM, Strain/Indicator: TA97A, Metabolic Activation: RAT, LIVER, S-9, AROCLOR 1254, Method: PREINCUBATION) was “inactive; negative”; the mutagenic call (Test System: AMES SALMONELLA TYPHIMURIUM, Strain/Indicator: TA102, Metabolic Activation: NONE, Method: PREINCUBATION) was “inactive; negative”; the mutagenic call (Test System: AMES SALMONELLA TYPHIMURIUM, Strain/Indicator: TA102, Metabolic Activation: RAT, LIVER, S-9, AROCLOR 1254, Method: PREINCUBATION) is “inactive; negative”.
For `CC1(C)S[C@@H]2[C@H](NC(=O)Cc3ccccc3)C(=O)N2[C@H]1C(=O)O`, the mutagenic call by setting is: under setting [5], “inactive; negative”; under setting [4], “inactive; negative”; (Test System: AMES SALMONELLA TYPHIMURIUM, Strain/Indicator: TA1537, Metabolic Activation: NONE, Method: STANDARD PLATE) “inactive; negative”; (Test System: E. COLI, Strain/Indicator: WP2 (HCR), Metabolic Activation: NONE, Method: STANDARD PLATE) “inactive; negative”.
As for `COc1c(C(C)(C)C)cc([N+](=O)[O-])c(C)c1[N+](=O)[O-]`, the mutagenic call reads like this: (Test System: AMES SALMONELLA TYPHIMURIUM, Strain/Indicator: TA98, Metabolic Activation: HAMSTER, LIVER, S-9, AROCLOR 1254 (10%), Method: PREINCUBATION) “inactive; negative”; under setting [1], “inactive; negative”; under setting [5], “inactive; negative”; (Test System: AMES SALMONELLA TYPHIMURIUM, Strain/Indicator: TA98, Metabolic Activation: RAT, LIVER, AROCLOR 1254, Method: STANDARD PLATE) “inactive; negative”; (Test System: AMES SALMONELLA TYPHIMURIUM, Strain/Indicator: TA98, Metabolic Activation: RAT, LIVER, S-9, AROCLOR 1254 (10%), Method: PREINCUBATION) “inactive; negative”; (Test System: AMES SALMONELLA TYPHIMURIUM, Strain/Indicator: TA98, Metabolic Activation: RAT, LIVER, S-9, AROCLOR 1254, Method: PREINCUBATION) “inactive; negative”. Further, the mutagenic call (Test System: AMES SALMONELLA TYPHIMURIUM, Strain/Indicator: TA98, Metabolic Activation: RAT, LIVER, S-9, AROCLOR 1254, Method: STANDARD PLATE) was “inactive; negative”; the mutagenic call (Test System: AMES SALMONELLA TYPHIMURIUM, Strain/Indicator: TA100 (NR), Metabolic Activation: NONE, Method: STANDARD PLATE) was “inactive; negative”; the mutagenic call (Test System: AMES SALMONELLA TYPHIMURIUM, Strain/Indicator: TA100(NR), Metabolic Activation: RAT LIVER S-9, AROCLOR 1254, Method: STANDARD PLATE) was “inactive; negative”; the mutagenic call (Test System: AMES SALMONELLA TYPHIMURIUM, Strain/Indicator: TA100, Metabolic Activation: HAMSTER, LIVER, S-9, AROCLOR 1254 (10%), Method: PREINCUBATION) was “inactive; negative”; the mutagenic call under setting [2] is “inactive; negative”; the mutagenic call under setting [4] was “inactive; negative”. The mutagenic call by setting is: (Test System: AMES SALMONELLA TYPHIMURIUM, Strain/Indicator: TA100, Metabolic Activation: RAT LIVER S-9, AROCLOR 1254, Method: STANDARD PLATE) “active; positive”; (Test System: AMES SALMONELLA TYPHIMURIUM, Strain/Indicator: TA100, Metabolic Activation: RAT, LIVER, S-9, AROCLOR 1254 (10%), Method: PREINCUBATION) “inactive; negative”; (Test System: AMES SALMONELLA TYPHIMURIUM, Strain/Indicator: TA100, Metabolic Activation: RAT, LIVER, S-9, AROCLOR 1254, Method: PREINCUBATION) “active; positive”; under setting [6], “active; positive”; (Test System: AMES SALMONELLA TYPHIMURIUM, Strain/Indicator: TA1535, Metabolic Activation: HAMSTER, LIVER, S-9, AROCLOR 1254 (10%), Method: PREINCUBATION) “inactive; negative”; under setting [3], “inactive; negative”. Further, the mutagenic call runs as follows: (Test System: AMES SALMONELLA TYPHIMURIUM, Strain/Indicator: TA1535, Metabolic Activation: RAT, LIVER, S-9, AROCLOR 1254 (10%), Method: PREINCUBATION) “inactive; negative”; (Test System: AMES SALMONELLA TYPHIMURIUM, Strain/Indicator: TA1537, Metabolic Activation: HAMSTER, LIVER, S-9, AROCLOR 1254 (10%), Method: PREINCUBATION) “inactive; negative”; (Test System: AMES SALMONELLA TYPHIMURIUM, Strain/Indicator: TA1537, Metabolic Activation: NONE, Method: PREINCUBATION) “inactive; negative”; (Test System: AMES SALMONELLA TYPHIMURIUM, Strain/Indicator: TA1537, Metabolic Activation: RAT, LIVER, S-9, AROCLOR 1254 (10%), Method: PREINCUBATION) “inactive; negative”.
For `OC1Cc2cc3cccc4ccc5ccc1c2c5c43` (configuration not stated), where the note is “Test System: AMES SALMONELLA TYPHIMURIUM, Strain/Indicator: TA98, Metabolic Activation: HUMAN, LIVER, CYTOSOL, PAPS, Method: PREINCUBATION”, the mutagenic call is “active; positive”.
As to `O=S(=O)(O)N(O)S(=O)(=O)O`, the mutagenic call by setting is: (Test System: AMES SALMONELLA TYPHIMURIUM, Strain/Indicator: G46, Metabolic Activation: RAT, LIVER, S-9, AROCLOR 1254, Method: STANDARD PLATE) “active; positive”; under setting [6], “active; positive”.
